Experimental data taken from patent publication US20150087627A1, “COMBINATION OF KINASE INHIBITORS AND USES THEREOF” (Intellikine LLC, priority 2011, published 2015).
Like-named read-outs stand apart in the source and are kept apart here.

Assays:
Format in all cases: biochemical
[1] = target: T1, mTOR (Homo sapiens, UniProt P42345); experiment: mTOR kinase inhibition assay (radiometric or LanthaScreen TR-FRET); conditions: read-out: mTORC IC50
T1 construct: purchased Invitrogen
Description: The cross-activity or lack thereof of one or more compounds of the present invention against mTor can be measured according to any procedures known in the art or methods disclosed below.
The compounds described herein can be tested against recombinant mTOR (Invitrogen) in an assay containing 50 mM HEPES, pH 7.5, 1 mM EGTA, 10 mM MgCl2, 2.5 mM, 0.01% Tween, 10 μM ATP (2.5 μCi of μ-32P-ATP), and 3 μg/mL BSA. Rat recombinant PHAS-1/4EBP1 (Calbiochem; 2 mg/mL) is used as a substrate. Reactions are terminated by spotting onto nitrocellulose, which is washed with 1M NaCl/1% phosphoric acid (approximately 6 times, 5-10 minutes each). Sheets are dried and the transferred radioactivity quantitated by phosphorimaging.
For instance, one can use Invitrogen's LanthaScreen™ Kinase assay to test the inhibitors of mTOR disclosed herein. This assay is a time resolved FRET platform that measures the phosphorylation of GFP labeled 4EBP1 by mTOR kinase. The kinase reaction is performed in a white 384 well microtiter plate. The total reaction volume is 20 ul per well and the reaction buffer composition is 50 mM HEPES pH7.5, 0.01% Polysorbate 20, 1 mM EGTA, 10 mM MnCl2, and 2 mM DTT. In the first step, each well receives 2 ul of test compound in 20% dimethylsulphoxide resulting in a 2% DMSO final concentration. […] The plate is sealed and incubated for 1 hour at room temperature. […] The plate is sealed, incubated for 1 hour at room temperature, and then read on a plate reader set up for LanthaScreen™ TR-FRET. Data is analyzed and IC50s are generated using GraphPad Prism 5.

[2] = target: T2, PI3K α (p110α/p85α) (Homo sapiens, UniProt P42336); experiment: PI 3-Kinase (human) HTRF assay, PI3K α; conditions: read-out: PI3K α IC50
T2 construct: purchased Upstate / Millipore Corporation

[3] = target: T3, PI3K β (p110β/p85α) (Homo sapiens, UniProt P42338); experiment: PI 3-Kinase (human) HTRF assay, PI3K β; conditions: read-out: PI3K β IC50
T3 construct: purchased Upstate / Millipore Corporation

[4] = target: T4, PI3K γ (p110γ) (Homo sapiens, UniProt P48736); experiment: PI 3-Kinase (human) HTRF assay, PI3K γ; conditions: read-out: PI3K γ IC50
T4 construct: purchased Upstate / Millipore Corporation

[5] = target: T5, PI3K δ (Homo sapiens, UniProt O00329); experiment: PI 3-Kinase (human) HTRF assay, PI3K δ; conditions: read-out: PI3K δ IC50
T5 construct: purchased Upstate / Millipore Corporation
T5 sequence (O00329 whole entry): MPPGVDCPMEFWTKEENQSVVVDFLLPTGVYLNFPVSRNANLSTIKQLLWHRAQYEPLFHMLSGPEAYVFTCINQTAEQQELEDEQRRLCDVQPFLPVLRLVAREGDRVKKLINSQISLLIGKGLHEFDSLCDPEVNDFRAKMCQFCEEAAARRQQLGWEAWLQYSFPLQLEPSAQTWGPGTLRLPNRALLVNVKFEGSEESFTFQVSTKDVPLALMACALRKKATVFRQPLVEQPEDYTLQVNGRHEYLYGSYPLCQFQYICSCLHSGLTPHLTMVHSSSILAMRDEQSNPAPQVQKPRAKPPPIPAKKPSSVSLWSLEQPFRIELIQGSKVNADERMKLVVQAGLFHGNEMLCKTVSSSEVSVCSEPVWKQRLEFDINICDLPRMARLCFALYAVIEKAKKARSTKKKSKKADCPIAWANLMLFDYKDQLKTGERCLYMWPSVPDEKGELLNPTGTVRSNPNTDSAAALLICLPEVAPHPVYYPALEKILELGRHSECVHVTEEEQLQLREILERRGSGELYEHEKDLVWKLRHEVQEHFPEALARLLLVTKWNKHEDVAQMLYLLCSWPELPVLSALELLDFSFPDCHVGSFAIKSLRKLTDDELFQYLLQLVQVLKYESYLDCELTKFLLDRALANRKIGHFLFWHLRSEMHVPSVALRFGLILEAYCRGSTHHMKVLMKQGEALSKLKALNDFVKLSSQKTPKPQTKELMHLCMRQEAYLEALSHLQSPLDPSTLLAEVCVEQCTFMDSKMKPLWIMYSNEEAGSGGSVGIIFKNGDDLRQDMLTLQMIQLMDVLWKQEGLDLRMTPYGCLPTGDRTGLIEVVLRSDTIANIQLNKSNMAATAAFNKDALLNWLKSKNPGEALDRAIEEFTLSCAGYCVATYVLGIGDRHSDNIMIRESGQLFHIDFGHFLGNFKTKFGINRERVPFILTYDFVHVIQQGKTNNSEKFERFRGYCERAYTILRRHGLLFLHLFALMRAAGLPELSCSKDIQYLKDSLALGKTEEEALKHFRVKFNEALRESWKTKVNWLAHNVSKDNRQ
T5 sequence (P27986 whole entry partner): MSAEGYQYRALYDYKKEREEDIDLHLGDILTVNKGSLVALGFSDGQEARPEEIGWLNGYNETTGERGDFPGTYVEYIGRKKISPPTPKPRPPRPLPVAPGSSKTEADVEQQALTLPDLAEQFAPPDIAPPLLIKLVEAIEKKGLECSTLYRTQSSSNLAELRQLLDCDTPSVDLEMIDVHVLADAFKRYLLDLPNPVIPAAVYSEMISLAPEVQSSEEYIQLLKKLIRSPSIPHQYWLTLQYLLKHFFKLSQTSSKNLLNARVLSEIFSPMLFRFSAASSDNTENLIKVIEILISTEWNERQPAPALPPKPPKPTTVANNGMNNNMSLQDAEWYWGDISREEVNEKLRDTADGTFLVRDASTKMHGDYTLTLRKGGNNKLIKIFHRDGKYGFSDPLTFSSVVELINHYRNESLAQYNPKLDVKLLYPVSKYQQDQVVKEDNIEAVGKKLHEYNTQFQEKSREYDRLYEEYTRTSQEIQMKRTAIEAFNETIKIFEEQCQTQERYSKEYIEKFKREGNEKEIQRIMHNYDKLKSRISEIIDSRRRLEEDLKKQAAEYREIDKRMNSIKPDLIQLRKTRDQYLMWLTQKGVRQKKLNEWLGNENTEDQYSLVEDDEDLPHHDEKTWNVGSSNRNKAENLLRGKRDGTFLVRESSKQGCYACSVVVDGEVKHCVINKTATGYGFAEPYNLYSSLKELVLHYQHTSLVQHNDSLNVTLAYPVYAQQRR

T3 sequence (P42338 whole entry): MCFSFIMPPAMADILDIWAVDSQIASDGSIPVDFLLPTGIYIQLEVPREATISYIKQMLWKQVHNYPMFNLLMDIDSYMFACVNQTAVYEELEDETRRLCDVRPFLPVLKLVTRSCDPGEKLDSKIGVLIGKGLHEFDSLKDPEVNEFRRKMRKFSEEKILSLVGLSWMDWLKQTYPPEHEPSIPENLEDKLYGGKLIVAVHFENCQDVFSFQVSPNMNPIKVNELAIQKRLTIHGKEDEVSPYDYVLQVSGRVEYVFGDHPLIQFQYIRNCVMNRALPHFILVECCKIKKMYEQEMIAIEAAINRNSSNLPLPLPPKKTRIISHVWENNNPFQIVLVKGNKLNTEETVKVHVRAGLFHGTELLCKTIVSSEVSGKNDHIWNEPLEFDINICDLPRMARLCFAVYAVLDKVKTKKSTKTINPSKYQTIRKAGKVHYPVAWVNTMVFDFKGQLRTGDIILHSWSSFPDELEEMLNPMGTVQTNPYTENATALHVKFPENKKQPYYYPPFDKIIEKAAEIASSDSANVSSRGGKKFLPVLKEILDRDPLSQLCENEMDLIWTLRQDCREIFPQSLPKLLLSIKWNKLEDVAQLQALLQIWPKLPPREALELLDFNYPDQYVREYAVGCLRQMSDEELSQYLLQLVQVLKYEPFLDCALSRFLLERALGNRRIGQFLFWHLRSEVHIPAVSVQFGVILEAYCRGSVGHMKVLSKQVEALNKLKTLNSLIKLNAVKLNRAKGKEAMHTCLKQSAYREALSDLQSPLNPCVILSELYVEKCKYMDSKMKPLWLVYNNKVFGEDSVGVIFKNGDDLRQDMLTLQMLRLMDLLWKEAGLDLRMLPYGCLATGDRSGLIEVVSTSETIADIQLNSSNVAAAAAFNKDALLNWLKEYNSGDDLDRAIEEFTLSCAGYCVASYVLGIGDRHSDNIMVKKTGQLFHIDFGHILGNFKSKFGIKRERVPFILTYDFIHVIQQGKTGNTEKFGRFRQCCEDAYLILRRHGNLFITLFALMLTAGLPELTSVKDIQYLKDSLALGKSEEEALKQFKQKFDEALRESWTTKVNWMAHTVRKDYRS
T3 sequence (P27986 whole entry partner): as the sequence (P27986 whole entry partner) above
T4 sequence (P48736 whole entry): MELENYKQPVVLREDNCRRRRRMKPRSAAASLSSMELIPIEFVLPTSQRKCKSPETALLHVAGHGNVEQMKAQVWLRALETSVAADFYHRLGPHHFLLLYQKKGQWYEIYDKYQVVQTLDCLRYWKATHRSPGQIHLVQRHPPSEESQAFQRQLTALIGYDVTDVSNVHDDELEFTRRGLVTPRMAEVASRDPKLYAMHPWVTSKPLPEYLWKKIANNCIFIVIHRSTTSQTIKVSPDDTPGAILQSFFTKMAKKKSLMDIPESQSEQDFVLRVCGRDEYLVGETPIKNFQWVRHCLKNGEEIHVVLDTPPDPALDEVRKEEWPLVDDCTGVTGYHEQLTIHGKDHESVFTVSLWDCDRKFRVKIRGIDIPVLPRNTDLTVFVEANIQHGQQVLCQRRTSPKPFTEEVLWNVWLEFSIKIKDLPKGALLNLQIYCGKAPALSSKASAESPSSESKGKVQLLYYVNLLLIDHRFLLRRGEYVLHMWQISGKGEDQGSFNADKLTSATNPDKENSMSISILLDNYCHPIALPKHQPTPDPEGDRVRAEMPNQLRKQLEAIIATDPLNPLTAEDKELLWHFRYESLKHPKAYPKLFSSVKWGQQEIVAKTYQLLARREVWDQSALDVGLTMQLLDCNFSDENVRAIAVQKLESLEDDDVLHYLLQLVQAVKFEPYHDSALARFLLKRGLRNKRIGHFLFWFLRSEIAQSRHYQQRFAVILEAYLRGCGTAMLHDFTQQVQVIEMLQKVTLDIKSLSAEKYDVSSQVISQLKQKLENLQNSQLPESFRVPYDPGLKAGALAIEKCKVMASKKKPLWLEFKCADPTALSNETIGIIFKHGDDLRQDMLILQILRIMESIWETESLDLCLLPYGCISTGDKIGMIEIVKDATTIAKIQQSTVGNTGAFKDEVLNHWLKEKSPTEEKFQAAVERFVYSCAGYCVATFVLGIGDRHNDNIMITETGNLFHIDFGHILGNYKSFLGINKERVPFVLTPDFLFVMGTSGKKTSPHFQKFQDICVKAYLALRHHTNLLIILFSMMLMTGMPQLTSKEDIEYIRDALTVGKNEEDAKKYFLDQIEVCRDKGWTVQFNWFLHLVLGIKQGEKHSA
T2 sequence (P42336 whole entry): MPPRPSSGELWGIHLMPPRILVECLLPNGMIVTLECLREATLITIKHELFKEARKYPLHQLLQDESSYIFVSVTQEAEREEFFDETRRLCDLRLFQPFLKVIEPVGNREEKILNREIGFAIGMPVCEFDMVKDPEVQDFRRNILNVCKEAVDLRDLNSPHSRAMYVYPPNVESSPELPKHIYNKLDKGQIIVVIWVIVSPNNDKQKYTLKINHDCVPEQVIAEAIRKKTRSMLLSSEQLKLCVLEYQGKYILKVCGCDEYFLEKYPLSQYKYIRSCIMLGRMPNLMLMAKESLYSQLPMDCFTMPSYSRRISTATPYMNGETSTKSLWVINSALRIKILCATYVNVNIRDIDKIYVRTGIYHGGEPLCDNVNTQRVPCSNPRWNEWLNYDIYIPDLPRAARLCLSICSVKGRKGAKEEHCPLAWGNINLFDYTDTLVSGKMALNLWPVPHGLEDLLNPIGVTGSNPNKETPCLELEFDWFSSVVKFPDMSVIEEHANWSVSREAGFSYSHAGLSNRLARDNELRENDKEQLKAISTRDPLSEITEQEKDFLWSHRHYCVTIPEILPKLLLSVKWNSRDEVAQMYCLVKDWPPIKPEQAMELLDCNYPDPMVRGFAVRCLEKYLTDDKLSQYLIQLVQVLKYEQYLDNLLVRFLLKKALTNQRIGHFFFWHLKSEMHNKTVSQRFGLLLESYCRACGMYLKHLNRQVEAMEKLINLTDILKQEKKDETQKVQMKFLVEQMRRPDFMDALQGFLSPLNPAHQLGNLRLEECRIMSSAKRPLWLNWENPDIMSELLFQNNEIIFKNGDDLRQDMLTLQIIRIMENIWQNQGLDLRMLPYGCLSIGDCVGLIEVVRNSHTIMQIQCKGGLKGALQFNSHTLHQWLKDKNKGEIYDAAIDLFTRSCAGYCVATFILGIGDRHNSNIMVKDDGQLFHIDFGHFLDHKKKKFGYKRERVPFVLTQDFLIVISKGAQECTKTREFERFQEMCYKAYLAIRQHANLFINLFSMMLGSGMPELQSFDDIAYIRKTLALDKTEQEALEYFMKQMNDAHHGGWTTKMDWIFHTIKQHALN
T2 sequence (P27986 whole entry partner): as the sequence (P27986 whole entry partner) above

Row | SMILES | IC50 [1] | IC50 [2] | IC50 [3] | IC50 [4] | IC50 [5] | IC50 ([1]; Table 4 (PI3K α inhibitors)) | IC50 ([2]; Table 4 (PI3K α inhibitors)) | IC50 ([3]; Table 4 (PI3K α inhibitors)) | IC50 ([4]; Table 4 (PI3K α inhibitors)) | IC50 ([5]; Table 4 (PI3K α inhibitors))
1 | Nc1nc2cc(-c3ccc4ncc(N5CC(N6CCN(CC7CC7)CC6)C5)nc4c3)ccc2o1 [Compound 335] | > 10 µM | < 100 nM | < 10 µM | > 10000 nM | < 10 µM |  |  |  |  | 
2 | Nc1nc2cc(-c3ccc4ncc(N5CC(N6CCOCC6)C5)nc4c3)c(F)cc2o1 [Compound 373] | > 10 µM | < 100 nM | < 10 µM | < 10000 nM | < 10 µM |  |  |  |  | 
3 | CCN(CC)C1CN(c2cnc3ccc(-c4ccc5oc(N)nc5c4)cc3n2)C1 [Compound 324] | > 10 µM | < 100 nM | < 10 µM | < 1000 nM | < 10 µM |  |  |  |  | 
4 | Cc1ccn(C2CN(c3cnc4ccc(-c5ccc6oc(N)nc6c5)cc4n3)C2)n1 [Compound 320] | > 10 µM | < 100 nM | < 10 µM | < 10000 nM | < 10 µM |  |  |  |  | 
5 | Nc1nc2cc(-c3ccc4ncc(-c5cccnc5)nc4c3)ccc2o1 [Compound 76] | < 10 µM | < 100 nM | > 10 µM | < 1000 nM | > 10 µM |  |  |  |  | 
6 | CC(C)(N)C(=O)N1CCN(c2cnc3ccc(-c4ccc5oc(N)nc5c4)nc3c2)CC1 [Compound 594] |  |  |  |  |  | > 10 µM | < 100 nM | < 10 µM | < 1000 nM | < 1 µM
7 | NCC(=O)N1CCN(c2cnc3ccc(-c4ccc5oc(N)nc5c4)nc3c2)CC1 [Compound 588] |  |  |  |  |  | > 10 µM | < 100 nM | < 1 µM | < 1000 nM | < 1 µM
8 | Nc1nc2ccc(-c3ccc4nccc(-c5ccncc5)c4c3)cc2s1 [Compound 3] | < 1 µM | < 100 nM | > 10 µM | < 1000 nM | < 1 µM |  |  |  |  | 
9 | CN1CCN(C2CN(c3cnc4ccc(-c5ccc6oc(N)nc6c5)nc4c3)C2)CC1 [Compound 625] |  |  |  |  |  | > 10 µM | < 100 nM | < 1 µM | < 1000 nM | < 1 µM
10 | CC(C)N1CCC(n2cnc3ccc(-c4ccc5oc(N)nc5c4)cc3c2=O)CC1 [Compound 74] | < 10 µM | < 100 nM | < 10 µM | < 10000 nM | > 10 µM |  |  |  |  | 
11 | CN1CCN(C(=O)C2CN(c3cnc4ccc(-c5ccc6oc(N)nc6c5)cc4n3)C2)CC1 [Compound 170] | < 10 µM | < 100 nM | < 1 µM | < 10000 nM | < 1 µM |  |  |  |  | 
12 | CC(=O)N1CCN(C2CN(c3cnc4ccc(-c5ccc6oc(N)nc6c5)cc4n3)C2)CC1 [Compound 327] | > 10 µM | < 100 nM | < 10 µM | < 1000 nM | < 1 µM |  |  |  |  | 
13 | Nc1ccc2cc(-c3ccc4nccc(-c5ccncc5)c4c3)ccc2n1 [Compound 5] | < 1 µM | < 1000 nM | > 10 µM | < 1000 nM | < 10 µM |  |  |  |  | 
14 | CCN1CCN(C2CN(c3cnc4ccc(-c5ccc6oc(N)nc6c5)cc4n3)C2)CC1 [Compound 329] | > 10 µM | < 100 nM | < 1 µM | < 10000 nM | < 1 µM |  |  |  |  | 
15 | Cc1nccn1C1CN(c2cnc3ccc(-c4ccc5oc(N)nc5c4)cc3n2)C1 [Compound 354] | < 10 µM | < 100 nM | < 10 µM | < 10000 nM | < 10 µM |  |  |  |  | 
16 | CS(=O)(=O)N1CCN(C2CCN(c3cnc4ccc(-c5ccc6oc(N)nc6c5)cc4n3)CC2)CC1 [Compound 377] | < 10 µM | < 100 nM | < 10 µM | < 1000 nM | < 10 µM |  |  |  |  | 
17 | CN1CCN(c2cnc3ccc(-c4ccc5oc(N)nc5c4)cc3n2)CC1=O [Compound 277] | < 10 µM | < 100 nM | < 1 µM | < 1000 nM | < 10 µM |  |  |  |  | 

Row | SMILES | IC50 [1] | IC50 [2] | IC50 [3] | IC50 [4] | IC50 [5] | IC50 ([1]; Table 4 (PI3K α inhibitors)) | IC50 ([2]; Table 4 (PI3K α inhibitors)) | IC50 ([3]; Table 4 (PI3K α inhibitors)) | IC50 ([4]; Table 4 (PI3K α inhibitors)) | IC50 ([5]; Table 4 (PI3K α inhibitors))
18 | Cc1cc2oc(N)nc2cc1-c1ccc2ncc(N3CC(N4CCOCC4)C3)nc2c1 [Compound 353] | > 10 µM | < 10000 nM | > 10 µM | > 10000 nM | > 10 µM |  |  |  |  | 
19 | Nc1nc2cc(-c3ccc4ncc(N5CC(N6CC[C@@H](O)C6)C5)nc4c3)ccc2o1 [Compound 315] | < 1 µM | < 100 nM | < 10 µM | < 10000 nM | < 10 µM |  |  |  |  | 
20 | Nc1ncc(-c2ccc3oc(N)nc3c2)cn1 [Compound 233] | > 10 µM | > 10000 nM | > 10 µM | < 10000 nM | > 10 µM |  |  |  |  | 
21 | Nc1nc2cc(-c3nc(N4CCOCC4)c4cnn(C5CCNCC5)c4n3)ccc2o1 [Compound 348] | < 1 µM | < 1000 nM | < 0.1 µM | < 1000 nM | < 10 µM |  |  |  |  | 
22 | CN1CC(C(=O)N2CCN(c3cnc4ccc(-c5ccc6oc(N)nc6c5)cc4n3)CC2)C1 [Compound 156] | > 10 µM | < 100 nM | < 1 µM | < 1000 nM | < 1 µM |  |  |  |  | 
23 | CS(=O)(=O)N1CCN(Cc2cc3nc(-c4ccc5oc(N)nc5c4)nc(N4CCOCC4)c3s2)CC1 [Compound 129] | < 1 µM | < 100 nM | < 1 µM | < 100 nM | < 1 µM |  |  |  |  | 
24 | CC(=O)N1CCC(Nc2ncnc3ccc(-c4ccc5oc(N)nc5c4)cc23)CC1 [Compound 60] | < 1 µM | < 100 nM | < 10 µM | < 100 nM | < 1 µM |  |  |  |  | 
25 | Nc1nc2cc(-c3ccc4ncc(=O)[nH]c4c3)ccc2o1 [Compound 72] | < 1 µM | < 100 nM | < 1 µM | < 100 nM | > 10 µM |  |  |  |  | 
26 | Nc1nc2cc(-c3ccc4ncc(N5CCN(C(=O)[C@@H](N)CO)CC5)nc4c3)ccc2o1 [Compound 298] | < 10 µM | < 100 nM | < 1 µM | < 10000 nM | < 10 µM |  |  |  |  | 
27 | N#Cc1cnc2ccc(-c3ccc4oc(N)nc4c3)cc2c1 [Compound 93] | < 10 µM | < 1000 nM | > 10 µM | < 1000 nM | > 10 µM |  |  |  |  | 
28 | Nc1nc2cc(-c3ccc4ncc(N5CC(C(=O)N6CCOCC6)C5)nc4c3)ccc2o1 [Compound 169] | < 10 µM | < 100 nM | < 1 µM | < 1000 nM | < 1 µM |  |  |  |  | 
29 | CC(=O)Nc1cn2cc(-c3ccc4oc(N)nc4c3)ccc2n1 [Compound 234] | < 1 µM | < 100 nM | < 1 µM | < 100 nM | < 0.1 µM |  |  |  |  | 
30 | Nc1nc2cc(-c3ccc4ncc(NCCN5CCOCC5)nc4c3)ccc2o1 [Compound 133] | > 10 µM | < 100 nM | < 1 µM | < 1000 nM | < 1 µM |  |  |  |  | 
31 | Nc1nc2cc(-c3ccn4ncc(-c5ccncc5)c4n3)ccc2o1 [Compound 62] | < 0.1 µM | < 100 nM | < 0.1 µM | < 100 nM | < 0.1 µM |  |  |  |  | 
32 | CN(C)CC(=O)N1CCN(c2cnc3ccc(-c4ccc5oc(N)nc5c4)cc3n2)CC1 [Compound 139] | > 10 µM | < 100 nM | < 1 µM | < 1000 nM | < 1 µM |  |  |  |  | 
33 | O=C(c1cnc2ccc(-c3cnc(Cl)c(NS(=O)(=O)c4ccc(F)cc4F)c3)cn12)N1CCOCC1 [Compound 419] | < 1 µM | < 100 nM | < 0.1 µM | < 100 nM | < 0.1 µM |  |  |  |  | 
